For one experiment, the system named is rat pleural cavity. In words: Reverse Passive Arthus Pleurisy Reaction (RPAPR), pleural exudate cells and fluid. It is filed as in vivo. Particulars: po; for inhibition in vivo at 5 mg/kg: 5 mg/kg p.o.; for inhibition in vivo at 10 mg/kg: 10 mg/kg p.o.; for inhibition in vivo at 25 mg/kg: 25 mg/kg p.o. The method, then:
(§1) RPAPR was produced by a modification of the Yamamoto et al. method (Agents and Actions 5: 374-377, 1975). Thirty (30) minutes prior to lightly anesthesizing rats with ether and then sensitizing them by injecting the animals i.v. with 0.33 mg of bovine serum albumin (BSA) dissolved in 0.2 ml sterile saline, a test compound was administered per os (p.o.) as indicated in Table 1. Thirty minutes later, the rats were again lightly anesthetized and challenged intrapleurally with a rabbit anti-BSA antibody (Organon), containing 1.2 mg antibody protein, dissolved in 0.2 ml sterile saline. Four hours after challenge the rats were sacrificed by CO2 inhalation, their pleural cavities exposed and the exudate harvested. The total volumes of each exudate was recorded and the total number of leukocytes determined using a Coulter Counter ZM.

Experiment [1] relates to SRS-A (leukotriene) release, guinea pig lung. The experiment can be described thus: SRSA Release in vitro (leukotriene release from sensitized guinea pig lung fragments). It is filed as cell-based. As to conditions: Cavia porcellus, ovalbumin challenge, read-out: SRSA Release in vitro % l. The method, then: First, kill sensitized guinea pigs by a blow to the head, remove the lungs and clean them of visible connective tissue, trachea and large blood vessels. Slice the lungs from individual animals into fragments approximately 1 mm in thickness using a Mcllwain tissue chopper and wash them with oxygenated Tyrode's buffer. Transfer weighted allquots (approximately 400 mg wet weight) of lung into vials containing 2 ml of fresh Tyrode's solution (containing 10 mM cysteine) and incubate in the presence or absence of test compound for 12 minutes at 37° C., challenge the tissues with 20 μg ovalbumin/ml (final concentration) and incubate for 15 minutes.
To measure leukotriene release, extract an aliquot of supernatant fluid with 4 volumes of 100% ethanol. After removal of the precipitated protein, dry the clear fluid under a stream of N2 gas. Measure the leukotriene content by a radioimmunoassay using [^3 H]LTC4 (leukotriene C4) and antiserum obtained from New England Nuclear. Calculate percent inhibition of leukotriene release by comparing for each lung the release in the presence of the test compound to that in the absence of test compound.

A further experiment concerns LTE4 (Leukotriene E4). The experiment can be described thus: Reverse Passive Arthus Pleurisy Reaction (RPAPR), LTE4 in pleural exudate. Particulars: rat, 25 mg/kg p.o.; radioimmunoassay of exudate. The class given is in vivo. The method, then:
as §1
(§2) The exudate were then centrifuged and the supernatants decanted. Four volumes of cold 95% acetone was added for each volume of exudate. One half hour later the samples were again centrifuged for 10 minutes. Immediately after, 5 ml of the supernatant was removed and dried under nitrogen. These samples were kept in a freezer until LTE4 and TxB2 were determined using a radioimmune assay kit from Amersham.
LTE4 = Leukotriene E4 a measure of lipoxygenase (LO) derived
(§3) mediators of inflammation.

A further experiment deals with TXB2 (Thromboxane B2). In words: Reverse Passive Arthus Pleurisy Reaction (RPAPR), TxB2 in pleural exudate. It is filed as in vivo. As to conditions: rat, 25 mg/kg p.o.; radioimmunoassay of exudate. The method, then:
as §1, §2
TXB2 = Thromboxane B2 a measure of cyclooxygenase (CO) derived
as §3

Experiment [2] concerns antigen-induced SRS-A mediated bronchoconstriction. In words: Guinea Pig Bronchospasm (anaphylactic bronchospasm in sensitized guinea pigs). It is filed as in vivo. Particulars: 5 mg/kg p.o., ovalbumin aerosol challenge. The protocol:
The anti-allergy activity of the compounds of this invention is identified by tests which measure a compound's inhibition of anaphylactic bronchospasms in sensitized guinea pigs having antigen-induced SRS-A mediated bronchoconstriction. Allergic bronchospasms were measured in actively sensitized guinea pigs by a modification of the procedure of Konzett and Rossler, Arch. Expt. Pathol. Pharmakol., 194, pp. 71-74 (1940). Male Hartly guinea pigs were sensitized with 5 mg ovalbumin injected ip and 5 mg injected sc in 1 ml saline on day 1 and 5 mg ovalbumin injected ip on day 4. To measure anaphylactic bronchospasm, sensitized guinea pigs were fasted overnight and the following morning were anesthetized with 0.9 mL/kg ip dialurethane. The trachea and jugular vein were cannulated and the animals were ventilated by a Harvard rodent respirator. A side arm to the tracheal cannula was connected to a Harvard pressure transducer to obtain a continuous measure of intratracheal pressure. An increase in intratracheal pressure was taken as a measure of bronchoconstriction. Each guinea pig was injected i.v. with 1 mg/kg propranolol, 5 mg/kg indomethacin and 2 mg/kg mepyramine given together in a volume of 1 mL/kg. […] Bronchoconstriction was measured as the peak increase in intratracheal pressure occurring within 15 minutes after antigen challenge.

Setting [3] is: Leukocyte, leukocytes in exudate 4 h after challenge, read-out: % Inhibition Cells.
Setting [4] is: exudate volume 4 h after challenge, read-out: % Inhibition Fluid.

Read-outs that look alike come from different tables or passages of the source.

As for `O=c1c(Cn2cncn2)cc2ccccc2n1-c1ccccc1` [Formula 2], the values for the inhibition in vivo at 5 mg/kg in the experiment on rat pleural cavity (setting [3]) and in the experiment with rat pleural cavity (setting [4]) were 64% and 42%, respectively. Moreover, in experiment [1], the inhibition at 30 µM turned out to be 83%.

For the molecule `O=c1c(Cn2cnnn2)cc2ccccc2n1-c1ccccc1` [Formula 3], the inhibition in vivo at 10 mg/kg in the experiment on rat pleural cavity (setting [3]) stood at 75%; in the experiment with rat pleural cavity (setting [4]), 50%. Besides, in experiment [1], the inhibition at 30 µM was found to be 83%.

On to `Cn1ccnc1SCc1cc2ccccc2n(-c2ccccc2)c1=O` [Formula 48, 1-Phenyl-3-(1-Methyl-1H-imidazol-2-ylthiomethyl)-2(1H)-quinolone], for which the figures for the inhibition in vivo at 25 mg/kg in the experiment with rat pleural cavity (setting [3]) and with rat pleural cavity (setting [4]) were 75% and 40%, respectively. In addition, the “% Inhibition LTE4” value with LTE4 (Leukotriene E4) is on record as 57%. The “% Inhibition TXB2” value in the experiment with TXB2 (Thromboxane B2) is listed as 67%.

In the case of `O=c1c(CCn2ccnc2)cc2ccccc2n1-c1ccccc1` [Formula 49], the results for the inhibition in vivo at 25 mg/kg in the experiment with rat pleural cavity (setting [3]) and with rat pleural cavity (setting [4]) were 86% and 53%, respectively.

Consider `CCc1nccn1Cc1cc2ccccc2n(-c2ccccc2)c1=O` [Formula 50], for which the inhibition in vivo at 25 mg/kg in the experiment with rat pleural cavity (setting [3]) and in the experiment with rat pleural cavity (setting [4]) was under 10% throughout.

`C[S+]([O-])Cc1cc2ccccc2n(Cc2ccccc2)c1=O` (stereo not shown) [Formula 51]: the inhibition in vivo at 25 mg/kg in the experiment with rat pleural cavity (setting [3]) was 22%; in the experiment on rat pleural cavity (setting [4]) it was under 10%.

As for `O=c1c(Cn2cncn2)cc2ccccc2n1Cc1ccccc1` [Formula 52], the inhibition in vivo at 25 mg/kg came out at 44% in the experiment with rat pleural cavity (setting [3]) and 46% in the experiment on rat pleural cavity (setting [4]).

Consider `O=c1c(Cn2cncn2)cc2ccccc2n1-c1ccc(Cl)cc1` [Formula 53], for which the values for the inhibition in vivo at 25 mg/kg with rat pleural cavity (setting [3]) and in the experiment with rat pleural cavity (setting [4]) were under 10% and 18%, respectively. For the same molecule, in experiment [2], the “G.P. Bronchospasm % l” value came out at 18%. In addition, the inhibition at 30 µM in experiment [1] amounted to 76%.

Take `O=c1c(Cn2cncn2)cc2cc(Br)ccc2n1-c1ccccc1` [Formula 54, 6-bromo-1-phenyl-3-(1H-1,2,4-triazol-1-ylmethyl)-2(1H)-quinolone]: the inhibition in vivo at 25 mg/kg in the experiment on rat pleural cavity (setting [3]) and with rat pleural cavity (setting [4]) was under 10% each time.

For the molecule `O=c1c(Cn2cncn2)cc2ccc(Cl)cc2n1-c1ccccc1` [Formula 55, 1-phenyl-7-chloro-3-(1H-1,2,4-triazol-1-ylmethyl)-2(1H)-quinolone], the inhibition in vivo at 25 mg/kg in the experiment with rat pleural cavity (setting [3]) and in the experiment with rat pleural cavity (setting [4]) was under 10% each time.

Turning to `O=c1c(Cn2cncn2)cc2ccccc2n1-c1cccc(Cl)c1` [Formula 56, (1-3-Chlorophenyl)-3-(1H-1,2,4-Triazol-1-ylmethyl)-2(1H)-Quinolone], the inhibition in vivo at 5 mg/kg was 56% with rat pleural cavity (setting [3]) and 63% with rat pleural cavity (setting [4]).

As to `O=c1c(Cn2cccn2)cc2ccccc2n1-c1ccccc1` [Formula 57], the inhibition in vivo at 25 mg/kg worked out at 20% in the experiment with rat pleural cavity (setting [3]) and 19% in the experiment with rat pleural cavity (setting [4]).

As for `CC(=O)NCc1cc2ccccc2n(-c2ccccc2)c1=O` [Formula 58], the inhibition in vivo at 25 mg/kg was determined as 62% in the experiment with rat pleural cavity (setting [3]) and 53% in the experiment on rat pleural cavity (setting [4]).

Consider `CC(=O)N1CCN(Cc2cc3ccccc3n(-c3ccccc3)c2=O)CC1` [Formula 59], for which the inhibition in vivo at 25 mg/kg in the experiment with rat pleural cavity (setting [3]) and in the experiment on rat pleural cavity (setting [4]) was 68% each time.

Source of the values: patent publication US5318971A, “3-Substituted-1-aryl-2(1H)-quinolones useful as anti-allergy and anti-inflammatory agents” (Schering Corporation, priority 1991, dated 1994).
